Publication PMC9329436, “Optimization of the 4-anilinoquin(az)oline scaffold as epidermal growth factor receptor (EGFR) inhibitors for chordoma utilizing a toxicology profiling assay platform” (Scientific Reports, 2022)
Where two headings read alike, the source gives them in different places.

Columns and labels:
Format in all cases: biochemical
[1] = molecular target: 320 wild-type protein kinases (Homo sapiens, UniProt Q00534); conditions: singlicate
Text: (§1) Table S4. Profiling of two compounds at two concentrations against 320 wild-type protein kinases; singlicate measurement; Residual activities (% of control).

[2] = molecular target: 320 wild-type protein kinases (Homo sapiens, UniProt P07333); conditions: CSF1-R, singlicate
Sequence of 320 wild-type protein kinases (Homo sapiens, UniProt P07333) (P07333 20-972): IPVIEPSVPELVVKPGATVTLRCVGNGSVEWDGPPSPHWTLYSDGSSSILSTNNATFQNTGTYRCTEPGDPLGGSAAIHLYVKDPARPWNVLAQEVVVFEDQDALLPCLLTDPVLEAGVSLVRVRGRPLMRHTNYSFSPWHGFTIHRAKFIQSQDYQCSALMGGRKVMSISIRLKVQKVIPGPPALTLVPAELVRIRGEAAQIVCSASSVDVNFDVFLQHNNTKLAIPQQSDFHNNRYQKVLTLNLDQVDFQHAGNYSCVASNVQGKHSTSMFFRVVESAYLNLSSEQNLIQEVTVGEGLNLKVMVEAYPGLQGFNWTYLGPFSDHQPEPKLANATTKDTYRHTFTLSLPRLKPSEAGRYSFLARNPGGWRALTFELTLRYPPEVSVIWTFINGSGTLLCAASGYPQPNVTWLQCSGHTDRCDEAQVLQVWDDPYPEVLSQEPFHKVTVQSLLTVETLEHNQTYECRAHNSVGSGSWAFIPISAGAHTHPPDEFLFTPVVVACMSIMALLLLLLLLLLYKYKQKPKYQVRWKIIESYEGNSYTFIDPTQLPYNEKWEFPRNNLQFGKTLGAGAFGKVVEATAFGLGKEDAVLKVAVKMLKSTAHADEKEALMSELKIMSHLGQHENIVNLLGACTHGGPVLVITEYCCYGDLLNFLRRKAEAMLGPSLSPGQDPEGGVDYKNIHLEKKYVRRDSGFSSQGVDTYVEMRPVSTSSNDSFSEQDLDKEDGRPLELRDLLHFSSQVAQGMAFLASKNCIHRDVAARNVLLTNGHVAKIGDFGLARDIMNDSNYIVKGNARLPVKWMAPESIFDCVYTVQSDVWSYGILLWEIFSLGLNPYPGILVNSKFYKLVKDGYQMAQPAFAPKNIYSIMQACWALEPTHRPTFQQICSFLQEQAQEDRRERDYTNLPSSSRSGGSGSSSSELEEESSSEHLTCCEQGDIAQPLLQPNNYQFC
Text: as §1

[3] = molecular target: 320 wild-type protein kinases (Homo sapiens, UniProt O96013); conditions: singlicate
Sequence of 320 wild-type protein kinases (Homo sapiens, UniProt O96013) (O96013 whole entry): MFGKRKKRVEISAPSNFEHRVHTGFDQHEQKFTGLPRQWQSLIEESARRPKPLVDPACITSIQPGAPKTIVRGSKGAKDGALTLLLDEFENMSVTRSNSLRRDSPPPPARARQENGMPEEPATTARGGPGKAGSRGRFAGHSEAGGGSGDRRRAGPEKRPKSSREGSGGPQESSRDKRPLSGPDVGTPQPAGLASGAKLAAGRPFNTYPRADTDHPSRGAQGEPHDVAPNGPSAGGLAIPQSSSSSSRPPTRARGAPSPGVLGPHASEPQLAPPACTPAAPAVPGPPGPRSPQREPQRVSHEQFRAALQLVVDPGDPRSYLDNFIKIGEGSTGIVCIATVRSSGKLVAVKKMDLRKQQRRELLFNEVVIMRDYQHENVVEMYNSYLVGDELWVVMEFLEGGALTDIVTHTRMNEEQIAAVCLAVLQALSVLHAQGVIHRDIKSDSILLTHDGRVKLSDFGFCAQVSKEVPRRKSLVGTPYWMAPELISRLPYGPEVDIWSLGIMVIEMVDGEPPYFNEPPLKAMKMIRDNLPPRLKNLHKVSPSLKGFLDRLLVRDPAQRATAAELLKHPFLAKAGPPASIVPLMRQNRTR
Text: as §1

[4] = molecular target: 320 wild-type protein kinases (Homo sapiens, UniProt Q04759); conditions: PKC-theta, singlicate
Sequence of 320 wild-type protein kinases (Homo sapiens, UniProt Q04759) (Q04759 whole entry): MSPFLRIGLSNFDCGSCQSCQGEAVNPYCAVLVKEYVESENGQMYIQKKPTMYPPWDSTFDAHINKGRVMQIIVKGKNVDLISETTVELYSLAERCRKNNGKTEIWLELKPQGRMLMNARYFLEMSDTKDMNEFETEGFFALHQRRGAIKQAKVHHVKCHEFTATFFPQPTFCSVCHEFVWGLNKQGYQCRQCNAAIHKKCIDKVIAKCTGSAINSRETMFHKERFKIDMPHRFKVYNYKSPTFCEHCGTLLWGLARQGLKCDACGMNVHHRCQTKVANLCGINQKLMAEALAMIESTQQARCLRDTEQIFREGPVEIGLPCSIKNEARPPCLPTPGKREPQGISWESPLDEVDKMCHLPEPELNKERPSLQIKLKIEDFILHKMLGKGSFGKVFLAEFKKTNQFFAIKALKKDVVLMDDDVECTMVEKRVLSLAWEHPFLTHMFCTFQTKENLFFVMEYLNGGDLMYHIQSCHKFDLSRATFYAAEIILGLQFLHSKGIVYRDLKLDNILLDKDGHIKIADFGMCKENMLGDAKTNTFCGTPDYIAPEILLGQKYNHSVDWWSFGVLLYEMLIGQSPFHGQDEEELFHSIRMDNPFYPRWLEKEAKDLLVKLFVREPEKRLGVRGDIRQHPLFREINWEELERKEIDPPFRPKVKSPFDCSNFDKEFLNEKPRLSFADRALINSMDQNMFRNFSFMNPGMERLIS
Text: as §1

[5] = molecular target: 320 wild-type protein kinases (Homo sapiens, UniProt P80192); conditions: singlicate
Sequence of 320 wild-type protein kinases (Homo sapiens, UniProt P80192) (P80192 whole entry): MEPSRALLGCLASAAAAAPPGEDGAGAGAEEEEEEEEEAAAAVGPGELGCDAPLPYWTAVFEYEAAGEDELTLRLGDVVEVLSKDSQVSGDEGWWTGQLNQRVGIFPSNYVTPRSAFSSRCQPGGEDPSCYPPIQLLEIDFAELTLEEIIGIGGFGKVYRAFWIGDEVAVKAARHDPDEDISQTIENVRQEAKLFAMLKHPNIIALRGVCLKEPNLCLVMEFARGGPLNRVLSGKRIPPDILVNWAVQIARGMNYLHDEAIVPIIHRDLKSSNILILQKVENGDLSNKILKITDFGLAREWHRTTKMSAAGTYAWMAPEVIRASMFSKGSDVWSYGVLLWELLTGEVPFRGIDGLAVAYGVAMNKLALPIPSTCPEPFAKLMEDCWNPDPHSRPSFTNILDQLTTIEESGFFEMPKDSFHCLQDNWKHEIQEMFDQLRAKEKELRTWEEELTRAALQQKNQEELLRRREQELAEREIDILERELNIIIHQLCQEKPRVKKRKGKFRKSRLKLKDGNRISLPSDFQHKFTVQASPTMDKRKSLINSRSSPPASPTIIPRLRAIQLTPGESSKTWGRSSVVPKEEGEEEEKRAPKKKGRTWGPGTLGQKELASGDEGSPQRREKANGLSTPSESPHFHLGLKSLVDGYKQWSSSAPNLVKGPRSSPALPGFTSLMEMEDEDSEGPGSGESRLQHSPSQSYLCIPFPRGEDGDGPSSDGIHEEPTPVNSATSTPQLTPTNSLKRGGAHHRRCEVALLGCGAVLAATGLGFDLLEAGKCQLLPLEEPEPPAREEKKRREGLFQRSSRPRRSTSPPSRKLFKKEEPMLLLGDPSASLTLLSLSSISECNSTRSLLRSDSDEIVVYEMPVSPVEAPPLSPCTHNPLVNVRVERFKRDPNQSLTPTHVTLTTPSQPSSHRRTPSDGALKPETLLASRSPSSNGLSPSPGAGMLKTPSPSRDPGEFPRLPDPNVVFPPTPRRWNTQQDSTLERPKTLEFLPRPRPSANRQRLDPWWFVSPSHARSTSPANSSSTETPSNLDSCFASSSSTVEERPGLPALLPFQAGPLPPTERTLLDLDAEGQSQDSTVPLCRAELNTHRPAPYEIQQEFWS
Text: as §1

[6] = molecular target: 320 wild-type protein kinases (Homo sapiens, UniProt P53779); conditions: singlicate
Sequence of 320 wild-type protein kinases (Homo sapiens, UniProt P53779) (P53779 whole entry): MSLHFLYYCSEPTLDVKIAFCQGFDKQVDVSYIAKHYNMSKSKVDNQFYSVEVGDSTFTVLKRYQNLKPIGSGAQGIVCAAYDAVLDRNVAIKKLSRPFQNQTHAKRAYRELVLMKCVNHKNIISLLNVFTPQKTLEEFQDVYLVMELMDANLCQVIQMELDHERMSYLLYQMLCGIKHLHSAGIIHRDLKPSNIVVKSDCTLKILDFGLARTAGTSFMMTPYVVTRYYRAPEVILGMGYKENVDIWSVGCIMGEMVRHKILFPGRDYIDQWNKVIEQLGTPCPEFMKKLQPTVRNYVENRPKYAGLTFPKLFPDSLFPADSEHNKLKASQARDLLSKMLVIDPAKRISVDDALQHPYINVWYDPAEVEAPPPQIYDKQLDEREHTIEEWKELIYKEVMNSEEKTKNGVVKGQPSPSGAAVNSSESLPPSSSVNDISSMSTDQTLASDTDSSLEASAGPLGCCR
Text: as §1

[7] = molecular target: T1, 320 wild-type protein kinases (Homo sapiens, UniProt P41743); conditions: PKC-iota, singlicate
T1 sequence (P41743 1-596): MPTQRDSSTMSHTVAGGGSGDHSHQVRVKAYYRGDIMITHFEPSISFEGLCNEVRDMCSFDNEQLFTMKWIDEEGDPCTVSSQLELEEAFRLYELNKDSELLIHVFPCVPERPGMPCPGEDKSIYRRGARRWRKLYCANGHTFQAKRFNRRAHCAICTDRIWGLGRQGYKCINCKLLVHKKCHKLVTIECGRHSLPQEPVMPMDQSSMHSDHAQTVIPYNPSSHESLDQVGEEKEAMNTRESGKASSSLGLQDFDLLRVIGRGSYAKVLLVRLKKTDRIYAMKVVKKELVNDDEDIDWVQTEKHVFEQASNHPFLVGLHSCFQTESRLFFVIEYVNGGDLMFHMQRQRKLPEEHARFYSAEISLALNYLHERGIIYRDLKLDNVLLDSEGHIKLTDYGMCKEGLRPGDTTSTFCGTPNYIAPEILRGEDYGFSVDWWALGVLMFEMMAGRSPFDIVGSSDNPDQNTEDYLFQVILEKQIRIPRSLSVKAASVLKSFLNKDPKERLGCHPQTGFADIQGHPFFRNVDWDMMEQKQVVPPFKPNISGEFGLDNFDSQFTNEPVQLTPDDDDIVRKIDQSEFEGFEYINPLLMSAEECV
Text: as §1

[8] = molecular target: 320 wild-type protein kinases (Homo sapiens, UniProt Q5S007); conditions: singlicate
Text: as §1

[9] = molecular target: T2, 320 wild-type protein kinases (Homo sapiens, UniProt Q15139); conditions: PKC-mu, singlicate
T2 sequence (Q15139 1-912): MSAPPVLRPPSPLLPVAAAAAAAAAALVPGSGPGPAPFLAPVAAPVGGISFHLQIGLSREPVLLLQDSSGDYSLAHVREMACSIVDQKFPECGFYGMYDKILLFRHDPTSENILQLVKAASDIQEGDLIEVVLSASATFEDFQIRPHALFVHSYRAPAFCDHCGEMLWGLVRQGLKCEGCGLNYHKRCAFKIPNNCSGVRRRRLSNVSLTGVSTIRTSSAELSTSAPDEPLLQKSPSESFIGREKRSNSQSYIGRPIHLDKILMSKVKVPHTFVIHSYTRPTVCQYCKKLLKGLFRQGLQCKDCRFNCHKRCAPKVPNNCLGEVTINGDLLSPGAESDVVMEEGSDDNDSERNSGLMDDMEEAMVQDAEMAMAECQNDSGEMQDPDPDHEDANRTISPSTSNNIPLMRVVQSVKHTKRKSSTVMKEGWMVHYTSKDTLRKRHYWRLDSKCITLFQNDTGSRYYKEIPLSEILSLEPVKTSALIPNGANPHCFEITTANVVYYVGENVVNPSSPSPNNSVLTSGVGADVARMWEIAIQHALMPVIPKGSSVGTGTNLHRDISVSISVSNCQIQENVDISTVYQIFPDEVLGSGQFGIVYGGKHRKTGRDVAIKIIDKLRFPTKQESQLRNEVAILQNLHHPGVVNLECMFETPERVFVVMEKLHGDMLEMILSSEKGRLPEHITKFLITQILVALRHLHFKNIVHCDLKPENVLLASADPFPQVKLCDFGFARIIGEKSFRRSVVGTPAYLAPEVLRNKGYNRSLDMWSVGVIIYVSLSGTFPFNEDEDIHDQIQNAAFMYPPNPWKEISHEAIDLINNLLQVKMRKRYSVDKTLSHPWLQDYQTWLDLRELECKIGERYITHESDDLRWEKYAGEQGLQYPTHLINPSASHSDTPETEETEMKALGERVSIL
Text: as §1

[10] = molecular target: T3, 320 wild-type protein kinases (Homo sapiens, UniProt P51955); conditions: singlicate
T3 sequence (P51955 1-445): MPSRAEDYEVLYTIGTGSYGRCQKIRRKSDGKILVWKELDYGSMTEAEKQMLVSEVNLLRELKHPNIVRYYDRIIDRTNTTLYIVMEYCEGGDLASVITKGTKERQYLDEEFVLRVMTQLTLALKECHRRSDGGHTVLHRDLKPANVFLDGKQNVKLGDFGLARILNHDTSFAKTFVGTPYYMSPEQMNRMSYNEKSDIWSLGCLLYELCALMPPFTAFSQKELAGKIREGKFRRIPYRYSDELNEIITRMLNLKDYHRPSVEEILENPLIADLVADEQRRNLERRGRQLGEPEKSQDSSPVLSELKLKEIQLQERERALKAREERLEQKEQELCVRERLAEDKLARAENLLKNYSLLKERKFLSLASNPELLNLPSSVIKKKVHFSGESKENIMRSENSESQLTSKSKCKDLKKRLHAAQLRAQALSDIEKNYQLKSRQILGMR
Text: as §1

[11] = molecular target: 320 wild-type protein kinases (Homo sapiens, UniProt Q9NYY3); conditions: kinase SNK, singlicate
Sequence of 320 wild-type protein kinases (Homo sapiens, UniProt Q9NYY3) (Q9NYY3 whole entry): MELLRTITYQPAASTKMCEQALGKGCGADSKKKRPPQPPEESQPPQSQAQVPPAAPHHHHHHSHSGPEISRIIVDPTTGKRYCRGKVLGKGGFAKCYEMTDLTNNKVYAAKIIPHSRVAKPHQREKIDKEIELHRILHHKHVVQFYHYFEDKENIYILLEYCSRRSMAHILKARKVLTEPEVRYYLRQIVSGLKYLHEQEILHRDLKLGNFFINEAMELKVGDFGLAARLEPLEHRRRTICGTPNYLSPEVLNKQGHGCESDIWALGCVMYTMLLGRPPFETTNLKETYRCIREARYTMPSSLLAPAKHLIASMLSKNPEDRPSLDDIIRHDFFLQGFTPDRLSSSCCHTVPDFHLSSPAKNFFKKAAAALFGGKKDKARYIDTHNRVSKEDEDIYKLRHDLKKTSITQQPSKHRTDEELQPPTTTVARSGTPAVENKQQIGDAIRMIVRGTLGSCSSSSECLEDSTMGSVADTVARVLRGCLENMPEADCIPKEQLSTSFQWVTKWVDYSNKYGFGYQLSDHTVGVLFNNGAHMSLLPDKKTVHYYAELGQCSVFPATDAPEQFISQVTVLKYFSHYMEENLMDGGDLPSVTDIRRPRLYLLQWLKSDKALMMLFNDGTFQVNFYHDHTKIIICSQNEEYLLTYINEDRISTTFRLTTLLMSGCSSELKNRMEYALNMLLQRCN
Text: as §1

Sequence of 320 wild-type protein kinases (Homo sapiens, UniProt Q00534) (Q00534 whole entry): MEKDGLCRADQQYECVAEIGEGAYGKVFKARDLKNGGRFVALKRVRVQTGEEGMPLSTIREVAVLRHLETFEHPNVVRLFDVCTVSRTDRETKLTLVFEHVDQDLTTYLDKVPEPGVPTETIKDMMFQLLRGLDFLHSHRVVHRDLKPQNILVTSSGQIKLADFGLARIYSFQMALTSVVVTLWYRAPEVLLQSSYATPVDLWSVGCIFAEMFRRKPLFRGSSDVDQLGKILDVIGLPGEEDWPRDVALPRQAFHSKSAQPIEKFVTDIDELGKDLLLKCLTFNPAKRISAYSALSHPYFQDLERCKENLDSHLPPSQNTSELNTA

Compound	Residual activity ([1]; CDK6/CycD1, 1.0E-06 M)	Residual activity ([1]; CDK6/CycD1, 1.0E-07 M)	Residual activity ([1]; CDK6/CycD3, 1.0E-06 M)	Residual activity ([1]; CDK6/CycD3, 1.0E-07 M)	Residual activity ([2]; 1.0E-06 M)	Residual activity ([2]; 1.0E-07 M)	Residual activity ([3]; PAK4, 1.0E-06 M)	Residual activity ([3]; PAK4, 1.0E-07 M)	Residual activity ([4]; 1.0E-06 M)	Residual activity ([4]; 1.0E-07 M)	Residual activity ([5]; MAP3K9, 1.0E-06 M)	Residual activity ([5]; MAP3K9, 1.0E-07 M)	Residual activity ([6]; JNK3, 1.0E-06 M)	Residual activity ([6]; JNK3, 1.0E-07 M)	Residual activity ([7]; 1.0E-06 M)	Residual activity ([7]; 1.0E-07 M)	Residual activity ([8]; LRRK2, 1.0E-06 M)	Residual activity ([8]; LRRK2, 1.0E-07 M)	Residual activity ([9]; 1.0E-06 M)	Residual activity ([9]; 1.0E-07 M)	further results
C#Cc1cc(Nc2ncnc3cc(I)ccc23)ccc1Cl [Compound 41]	98 % of control	92 % of control	103 % of control	102 % of control	123 % of control	130 % of control	82 % of control	103 % of control	102 % of control	101 % of control	87 % of control	97 % of control	99 % of control	90 % of control	104 % of control	119 % of control	87 % of control	88 % of control	89 % of control	111 % of control	Residual activity ([10]; NEK2, 1.0E-06 M): 82 % of control; Residual activity ([10]; NEK2, 1.0E-07 M): 96 % of control; Residual activity, SNK ([11]; assay conc. 1.0E-06 M): 89 % of control; Residual activity, SNK ([11]; assay conc. 1.0E-07 M): 97 % of control
C#Cc1cc(Nc2ncnc3cc(OC)c(OC)cc23)ccc1Cl [Compound 45]	86 % of control	96 % of control	105 % of control	95 % of control	108 % of control	127 % of control	95 % of control	103 % of control	101 % of control	109 % of control	61 % of control	92 % of control	89 % of control	92 % of control	96 % of control	139 % of control	81 % of control	99 % of control	73 % of control	92 % of control	Residual activity ([10]; NEK2, 1.0E-06 M): 86 % of control; Residual activity ([10]; NEK2, 1.0E-07 M): 92 % of control; Residual activity, SNK ([11]; assay conc. 1.0E-06 M): 87 % of control; Residual activity, SNK ([11]; assay conc. 1.0E-07 M): 99 % of control
